{"source": "patent US9429568B2", "about": "“Silaanthracene as a red and near infrared sensor and a method to manufacture such a sensor” (Board of Trustees of Southern Illinois University on Behalf …, priority 2010, dated 2016)", "key": {"[1]": {"assay": "Hypochlorous acid (HOCl) sensor: fluorescence and absorbance response to added HOCl", "assay_type": "physicochemical", "conditions": "0.5 μM compound; for peak emission intensity wavelength: all HOCl concentrations", "protocol": "A solution of compound 3 from Table 2 herein was formed at a concentration of 0.5 μM and at a pH of 7.4. HOCl was added to the solution at concentrations ranging up to 2 μM and the fluorescence of the resulting solutions was measured after exposure to an excitatory light pulse of 655 nm.\nA solution of compound 29 from Table 5 herein was formed at a concentration of 0.5 μM and at a pH of 7.4. HOCl was added to the solution at concentrations ranging up to 5 μM and the fluorescence of the resulting solutions was measured after exposure to an excitatory light pulse of 580 nm."}, "[2]": {"assay": "Ratiometric sensor for hypochlorous acid and pH: UV-Vis and fluorescence in buffer series", "assay_type": "physicochemical", "conditions": "excited at 430 nm, all HOCl concentrations, phosphate or citrate/phosphate buffer, 0.5% DMF", "protocol": "A solution of compound 29 from Table 4 herein was dissolved in a series of phosphate buffer or citrate/phosphate buffer solutions using 0.5% DMF for dissolution. The pH level of each sample solution was checked using a digital pH meter (Accumet, AB15) equipped with a glass electrode (Accumet, pH/ATC Calomel) to confirm the pH of each sample solution. After recording the pH of a sample solution, 20 mL of the sample solution was stirred in a 50 mL beaker to saturate the sample solution with oxygen. Small aliquots from a dilute HOCl solution were then added to the sample solution. After the addition of each HOCl aliquot, the sample solution was stirred for approximately 45 seconds and then the UV-Vis and fluorescence of the sample solution was measured using a quartz cuvette with fluorescence excitations at 570 nm and 430 nm. The concentration of the NaOCl solution was determined by using a standardized sodium thiosulfate solution."}}, "data": [{"smiles": "CN(C)c1ccc2c(c1)[Si](C)(C)c1cc(N(C)C)ccc1C21SCc2ccccc21", "note": "[Compound 3]", "values": [{"measurement": "peak emission intensity wavelength", "setting": "[1]; pH 7.4, HOCl up to 2 μM, excitation 655 nm", "value": 663, "unit": "nm"}]}, {"smiles": "C[Si]1(C)c2cc(O)ccc2C2(c3ccccc3C(=O)N2CCN2CCNCCNCCNCC2)c2ccc(O)cc21", "note": "[Compound 29]", "values": [{"measurement": "maximum absorbance wavelength λmax", "setting": "[1]; pH 7.4, HOCl up to 5 μM", "value": 590, "unit": "nm"}, {"measurement": "shoulder peak emission wavelength", "setting": "[1]; pH 7.4, HOCl up to 5 μM, excited at 430 nm", "value": 570, "unit": "nm"}, {"measurement": "peak emission intensity wavelength", "setting": "[1]; pH 7.4, HOCl up to 5 μM, excited at 570 nm", "value": 605, "unit": "nm"}, {"measurement": "first emission intensity peak wavelength", "setting": "[2]", "value": 570, "unit": "nm"}, {"measurement": "second more intense emission peak wavelength", "setting": "[2]", "value": 600, "unit": "nm"}]}]}
